One series concerns guinea pigs. The note with it: guinea pig, in vivo; cited from earlier work.
The target of series [1] is BuChE, horse (butyrylcholinesterase, EC 3.1.1.8) (Equus caballus, UniProt P81908). The series is classed as biochemical.
Series [2] concerns the target AChE, eel (acetylcholinesterase, EC 3.1.1.7) (Electrophorus electricus, UniProt O42275). The series is classed as biochemical, electric eel.

Counter-ions that a name gives are not always drawn.

Sequence of AChE, eel (acetylcholinesterase, EC 3.1.1.7) (O42275 24-633): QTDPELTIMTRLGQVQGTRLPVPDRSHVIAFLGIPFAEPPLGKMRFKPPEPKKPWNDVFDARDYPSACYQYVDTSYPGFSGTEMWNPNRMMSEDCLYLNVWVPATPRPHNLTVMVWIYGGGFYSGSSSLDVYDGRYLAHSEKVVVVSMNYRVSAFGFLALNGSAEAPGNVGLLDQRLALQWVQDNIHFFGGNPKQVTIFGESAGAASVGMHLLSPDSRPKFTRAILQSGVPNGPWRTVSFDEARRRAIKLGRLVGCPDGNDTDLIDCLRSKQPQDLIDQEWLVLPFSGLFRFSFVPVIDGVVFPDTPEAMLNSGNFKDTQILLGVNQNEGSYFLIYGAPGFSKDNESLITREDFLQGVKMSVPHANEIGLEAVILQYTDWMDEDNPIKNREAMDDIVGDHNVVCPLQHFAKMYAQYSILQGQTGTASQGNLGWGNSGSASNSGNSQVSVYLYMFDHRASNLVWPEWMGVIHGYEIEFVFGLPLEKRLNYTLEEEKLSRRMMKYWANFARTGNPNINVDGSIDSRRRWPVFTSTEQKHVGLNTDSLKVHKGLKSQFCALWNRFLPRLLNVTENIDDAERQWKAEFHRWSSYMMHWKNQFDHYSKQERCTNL
Sequence of BuChE, horse (butyrylcholinesterase, EC 3.1.1.8) (P81908 whole entry): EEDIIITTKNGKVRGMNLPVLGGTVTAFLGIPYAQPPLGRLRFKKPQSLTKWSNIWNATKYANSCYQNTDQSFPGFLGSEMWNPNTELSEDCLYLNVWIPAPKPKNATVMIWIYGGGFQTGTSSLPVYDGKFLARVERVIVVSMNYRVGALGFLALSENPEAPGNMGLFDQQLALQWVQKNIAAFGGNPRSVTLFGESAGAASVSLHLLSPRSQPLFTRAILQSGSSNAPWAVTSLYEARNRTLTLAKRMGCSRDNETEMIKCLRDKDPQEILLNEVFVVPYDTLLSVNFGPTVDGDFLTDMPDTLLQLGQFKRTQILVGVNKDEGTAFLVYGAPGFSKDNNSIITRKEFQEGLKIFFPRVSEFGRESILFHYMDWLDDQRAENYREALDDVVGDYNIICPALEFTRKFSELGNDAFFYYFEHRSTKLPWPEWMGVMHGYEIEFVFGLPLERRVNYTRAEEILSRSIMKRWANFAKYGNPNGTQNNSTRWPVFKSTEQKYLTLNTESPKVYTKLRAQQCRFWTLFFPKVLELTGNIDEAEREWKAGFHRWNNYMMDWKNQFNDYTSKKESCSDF

Turning to `CN(C)C(=O)Oc1ccc[n+](C)c1` [pyridostigmine iodide], the “maximum dosage which does not result in side-effects” value with guinea pigs is recorded as 0.1 mg/kg.

Consider `C[n+]1ccccc1C=NO.[I-]` [2-PAM, 2-hydroximinomethyl-1-methylpyridinium iodide], for which the “effect of oxime on reactivation of TDPI-inhibited BuChE” value in series [1] was “enhanced the reactivation of horse serum BuChE”. Moreover, the “effect of oxime on spontaneous reactivation of TDPI-inhibited AChE” value in series [2] is reported as “accelerated significantly the spontaneous reactivation”.

`C[n+]1cccc(C=NO)c1` [3-PAM]: the “effect of oxime on spontaneous reactivation of TDPI-inhibited AChE” value in series [2] is “did not enhance the regeneration of enzyme activity”.

Regarding `CNC(=O)Oc1ccc2c(c1)[C@]1(C)CCN(C)[C@@H]1N2C` [physostigmine sulfate], the “maximum dosage which does not result in side-effects” value in the series with guinea pigs was 0.1 mg/kg.

Source of the values: patent US4472320A (priority 1981, dated 1984).
